Read-outs that look alike come from different tables or passages of the source.
How the values were obtained:
[1] = parameters: method as in PMID 20072920; details: CUPRAC; cited from earlier work
diet-induced MetS model [2] = experiment: In vivo diet-induced (high-fructose high-fat) MetS model; parameters: species or system Sprague–Dawley male rats; details: MetS rats, 10 mg/kg p.o. for 14 days, vs untreated group; for effect on triglycerides and glucose (TyG) index: TyG = Ln(triglyceride x glucose/2); for effect on glucose levels / effect on total cholesterol levels / effect on triglyceride levels / effect on body weight: HFHF diet; for effect on glucose levels / effect on total cholesterol levels / effect on triglyceride levels: serum
Experimental: In the diet-induced model, MetS was generated through 12 weeks of the consumption of a high-fructose high-fat (HFHF) diet per the previous experience in our group. The control group received a standard diet during the same period. After this induction phase, the animals of the standard diet were randomly allocated into two groups; one group (C/treated groups) would receive treatment with compounds 2, 3, or 4 for 14 days (10 mg/kg, p.o.), and the other group would receive no treatment (C groups). The same allocation was made for the diet-induced MetS group (the MetS group received no treatment, while MetS/treated groups received compound 2, 3, or 4, 10 mg/kg, p.o. for 14 days), as depicted in Figure 4.
For the in vivo experimentation, eighty Sprague–Dawley male rats weighing 250 ± 25 g were housed in acrylic boxes and treated following the recommendations and requirements of the NOM-062-ZOO-1999 (Official Mexican Standard for the Production, Care, and Use of Laboratory Animals). They were kept in a clear-air room maintained on an artificial 12 h light/dark cycle and were given ad libitum access to food and water. The protocol was approved by the Institutional Subcommittee for the Care and Use of Laboratory Animals (SICUAL) with the registration number FMM/SICUAL/006/2017 (date of approval, 30 August 2017).
The animals were randomly allocated to a group (control groups) that was fed on a regular Chow commercial diet (Purina-Rodent Laboratory Chow-5001 3.310 kcal/g) or to a group (MetS groups) that was supplied with a high-fructose and high-fat diet (4.161 kcal/g) for the generation of MetS. From our own experience, MetS is established after twelve weeks with this diet. The weight of each animal was recorded at the beginning of the study and every week after the completion of the induction period. In weeks nine and twelve, the glucose, total cholesterol, and triglyceride levels were monitored in fasting conditions of 12 h, using an Accutrend plus monitor (Roche). Following the MetS induction phase, the control and MetS groups were rearranged into the following groups: (1) control (CM, regular diet + no treatment n = 10); (2) MetS (HFHF diet + no treatment, n = 10); (3) control + compound 2 (C/2 regular diet + treatment with 2, n = 10); (4) MetS + compound 2 (MetS/2, HFHF diet + treatment with 2, n = 10); (5) control + compound 3 (C/3, regular diet + treatment with […], n = 10); (6) MetS + compound 3 (MetS/3, HFHF diet + treatment with 3, n = 10); (7) control + compound 4 (C/4, regular diet + treatment with 4, n = 10); (8) MetS + compound 4 (MetS/4, HFHF diet + treatment with 4, n = 10). The treatment stage lasted 14 days, and the animals retained the same diet they had during the induction to exclude the effect of diet change. All the animals received 100 μL of a 1% Kolliphor EL mixture in water with or without the tested compound (10 mg/Kg) via nasogastric. Animals were sacrificed by decapitation. The blood was collected and centrifuged at 1372× g for 15 min at 4 °C. The serum was gathered and stored at −80 °C until the determination of metabolic parameters.
The animals’ serum was defrosted, and triacylglyceride, cholesterol, and glucose levels were determined on an Architect c8000 system (Abbott, Wiesbaden, Germany). Statistical analysis was performed using one-way ANOVA, followed by Dunnett’s multiple comparisons tests employing GraphPad Prism version 9.4.1 (GraphPad Software, La Jolla, CA, USA). Differences were considered significant when p ≤ 0.05.

[3] = Total antioxidant capacity, CUPRAC assay (Trolox equivalent antioxidant capacity); details: triplicate
Experimental: (§1) The HMG-CoA Reductase Assay Kit from Sigma-Aldrich (catalog number CS1090, St. Louis, MO, USA) was used to determine the inhibitory properties of compounds 3 and 4 over enzyme activity, using the instructions provided by the fabricant. […] For IC50 determination of compound 3, final concentrations of 2.5, 5.0, 10.0, and 20 μM were employed by triplicate. The Total Antioxidant Capacity Assay Kit from Sigma-Aldrich (catalog number MAK187, St. Louis, MO, USA) was used for the determination of in vitro antioxidant activity following the manufacturer’s instructions by triplicate.

HMG-CoA reductase [4] = target: T1, HMG-CoA reductase (Homo sapiens, UniProt P04035); experiment: In vitro HMG-CoA reductase inhibition (HMG-CoA Reductase Assay Kit, Sigma-Aldrich CS1090); format: biochemical; details: for inhibition at 20 µM: initial screening, read-out: inhibition of HMG-CoA reductase enzymatic activity
T1 construct: purchased Sigma-Aldrich CS1090
T1 sequence (P04035 426-888 limits assumed): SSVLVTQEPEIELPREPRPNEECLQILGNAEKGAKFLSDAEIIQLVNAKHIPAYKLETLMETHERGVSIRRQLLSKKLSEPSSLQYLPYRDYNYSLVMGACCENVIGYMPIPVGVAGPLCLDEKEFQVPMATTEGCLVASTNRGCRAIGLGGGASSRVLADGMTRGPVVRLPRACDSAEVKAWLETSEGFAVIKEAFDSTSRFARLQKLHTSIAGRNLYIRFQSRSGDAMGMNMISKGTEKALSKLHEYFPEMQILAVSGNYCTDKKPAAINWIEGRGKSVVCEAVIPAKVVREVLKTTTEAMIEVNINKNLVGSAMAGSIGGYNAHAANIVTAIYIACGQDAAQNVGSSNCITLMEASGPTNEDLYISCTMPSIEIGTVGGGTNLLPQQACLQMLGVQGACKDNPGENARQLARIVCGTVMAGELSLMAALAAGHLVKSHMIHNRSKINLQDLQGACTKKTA
Experimental: as §1

diet-induced MetS model [5] = system: diet-induced MetS model; parameters: method as in PMID 34577613; details: in vivo diet-induced MetS model, previous study ref 38; cited from earlier work
HMG-CoA reductase [6] = target: T1, HMG-CoA reductase; parameters: method as in earlier work; details: same commercial kit, ref 73 (Mendieta et al.); cited from earlier work

For `O=C(O[C@@H]1Cc2c(O)cc(O)cc2O[C@@H]1c1ccc(O)c(O)c1)c1cc(O)c(O)c(O)c1` [epicatechin gallate], the “TEAC (Trolox equivalent antioxidant capacity)” value (“TEAC” below) [1] is given as “above 3.0”.
For `O=c1c(O)c(-c2ccc(O)c(O)c2)oc2cc(O)cc(O)c12` [quercetin], the “TEAC” value [1] is given as “above 3.0”.
With `COc1ccc(C(=O)Nc2ccc(NC(=O)c3ccc(OC)c(OC)c3)c(C(=O)O)c2)cc1OC` [Compound 3, 2,5-Bis(3,4-dimethoxybenzamido)benzoic Acid] the “effect on triglycerides and glucose (TyG) index” value (diet-induced MetS model [2]) was “decrease”, the “effect on glucose levels” value (diet-induced MetS model [2]) was “reduced” and the “effect on total cholesterol levels” value (diet-induced MetS model [2]) was “reduced”. For the same molecule, the “effect on triglyceride levels” value (diet-induced MetS model [2]) was “reduced”, the “effect on body weight” value (diet-induced MetS model [2]) was “reduced” and the “TEAC” value [3] was 1.01 ± 0.06. For the same molecule, the inhibition at 20 µM (HMG-CoA reductase [4]) was 94% and the IC50 (HMG-CoA reductase [4]; concentrations 2.5, 5.0, 10.0 and 20 μM, triplicate) was 8.89 ± 0.51 µM.
For `COc1ccc(/C=C/C(=O)Nc2ccc(NC(=O)/C=C/c3ccc(OC)c(OC)c3)c(C(=O)NCc3ccc(C(F)(F)F)cc3)c2)cc1OC` [Compound 4, (2E,2′E)-N,N′-(2-((4-(Trifluoromethyl)benzyl)carbamoyl)-1,4-phenylene)bis(3-(3,4-dimethoxyphenyl)acrylamide)], the “effect on triglycerides and glucose (TyG) index” value (diet-induced MetS model [2]) was “decrease”, the “effect on total cholesterol levels” value (diet-induced MetS model [2]) was “not significant” and the “effect on body weight” value (diet-induced MetS model [2]) was “not significant”. The “TEAC” value [3] was 1.33 ± 0.04, the melting point was > 250 °C and the inhibition at 20 µM (HMG-CoA reductase [4]) was 46%.
For `COc1ccc(C(=O)Nc2ccc(NC(=O)c3ccc(OC)c(OC)c3)c(C(=O)NCc3ccc(C(F)(F)F)cc3)c2)cc1OC` [Compound 1], the “effect on blood pressure” value (diet-induced MetS model [5]) is given as “diminished”, the “effect on glucose serum levels” value (diet-induced MetS model [5]) is given as “diminished” and the “effect on total cholesterol serum levels” value (diet-induced MetS model [5]) is given as “diminished”.
In the case of `COc1cc(/C=C/C(=O)O)ccc1O` [ferulic acid], the “TEAC” value [1] is listed as 1.20.
For `COc1ccc(C(=O)Nc2ccccc2C(=O)NCc2ccc(C(F)(F)F)cc2)cc1OC` [Compound 2], the “effect on glucose levels” value (diet-induced MetS model [2]) was “did not affect”, the “effect on total cholesterol levels” value (diet-induced MetS model [2]) was “did not affect” and the “effect on triglyceride levels” value (diet-induced MetS model [2]) was “did not affect”. For the same molecule, the “effect on body weight” value (diet-induced MetS model [2]) was “did not affect”.
In the case of `C/C=C/c1cc(OC)c(OC)cc1OC` [α-asarone], the IC50 (HMG-CoA reductase [6]) is listed as 5.86 µM.

Source: PMC9784827, “In Combo Studies for the Optimization of 5-Aminoanthranilic Acid Derivatives as Potential Multitarget Drugs for the Management of Metabolic Syndrome” (Pharmaceuticals, 2022)
